Measurements as given in patent US6524584B2, “Saponin compositions and uses thereof” (priority 1996, dated 2003).

Legend:
[1] = test system: bovine serum albumin and cytochrome b5; settings: mice; cited from earlier work
[2] = test system: cytochrome b5; settings: saponin doses of 20 μg; cited from earlier work
[3] = test system: ovalbumin; settings: doses below 2.5 μg, mice; cited from earlier work
[4] = test system: ovalbumin; settings: at 2.5 μg or lower, mice; cited from earlier work
[5] = test system: ovalbumin; test: Serum anti-ovalbumin antibody response by enzyme immunoassay after immunization; type: in vivo, C57BL/6 mice; settings: saponin dose 0.625 μg, alone
Procedure: (§1) All experiments were carried out in C57BL/6 mice (female, 8-12 weeks of age). The synergistic adjuvant-effect of the QS-21/QS-7 mixtures was assessed by two parameters: (1) the ability of these mixtures to improve antibody titers to a subunit antigen, ovalbumin, in mice; and (2) the ability of these mixtures to improve an ovalbumin-specific cytotoxic T lymphocyte (killer cell) response in mice.
The experimental techniques were the following. The mice were immunized subcutaneously at week 1, 3, and 5 with 0.2 ml of the indicated formulations in phosphate-buffered saline. Mice were immunized in groups of five. Sera and spleens were harvested at weeks 7 to 9. Sera was assayed for anti-ovalbumin antibody response by enzyme immunoassay. Briefly, a 96 well Immulon plate was coated with 10 μg/ml ovalbumin in phosphate-buffered saline (PBS) overnight at 4° C. These plates were blocked with 10% normal goat serum in PBS (diluent) for one hour at room temperature. Serial 1:10 dilutions of serum were made in diluent and were incubated on the plates for one hour at room temperature or overnight at 4° C. An enzyme conjugate of anti-mouse IgG (or anti-mouse IgG subclass) was diluted in diluent and incubated on the plate. A calorimetric enzyme substrate, tetramethylbenzidine, was used to assay for binding of anti-ovalbumin antibody. […]

[6] = test system: mice; settings: mouse, in vivo; cited from earlier work
[7] = test system: E.G7-OVA target cells; test: Cytotoxic T-lymphocyte (CTL) assay, 51Cr release, splenic effector cells from immunized mice; type: in vivo, C57BL/6 mice; settings: s.c. with ovalbumin, weeks 1, 3, 5
Procedure: as §1
The experimental techniques were the following. The mice were immunized subcutaneously at week 1, 3, and 5 with 0.2 ml of the indicated formulations in phosphate-buffered saline. Mice were immunized in groups of five. Sera and spleens were harvested at weeks 7 to 9. Sera was assayed for anti-ovalbumin antibody response by enzyme immunoassay. Briefly, a 96 well Immulon plate was coated with 10 μg/ml ovalbumin in phosphate-buffered saline (PBS) overnight at 4° C. These plates were blocked with 10% normal goat serum in PBS (diluent) for one hour at room temperature. Serial 1:10 dilutions of serum were made in diluent and were incubated on the plates for one hour at room temperature or overnight at 4° C. An enzyme conjugate of anti-mouse IgG (or anti-mouse IgG subclass) was diluted in diluent and incubated on the plate. A calorimetric enzyme substrate, tetramethylbenzidine, was used to assay for binding of anti-ovalbumin antibody. Spleens from immunized mice were used to assay for the cytotoxic T lymphocyte (CTL) response. The effector cells for the (CTL) assay were splenic mononuclear cells from the harvested spleens. The antigen-positive target cells for the assay were E.G7-OVA cells, which are an MHC class II antigen-negative EL4 mouse cell line, transfected with the ovalbumin gene. […] EL4 cells were used as an ovalbumin-negative target cell line. Prior to assay, splenic mononuclear cells were stimulated with antigen to induce maturation of precursor CTL in the effector cell population. The antigens used for stimulation were mitomycin C treated E.G7-OVA cells (incubated with spleen cells at a ratio of 20:1 spleen cells: E.G7-OVA cells) or denatured ovalbumin (25 μg/ml). […]

QS-17
antibody responses to bovine serum albumin and cytochrome b5 [1]: stimulate potent antibody responses
IgG2a response to cytochrome b5 [2]: stimulate IgG2a response

QS-18
antibody responses to bovine serum albumin and cytochrome b5 [1]: stimulate potent antibody responses
IgG2a response to cytochrome b5 [2]: stimulate IgG2a response

QS-21
adjuvant for raising an antibody response to ovalbumin [3]: ineffective
CTL response to ovalbumin [4]: minimal
antibody responses to bovine serum albumin and cytochrome b5 [1]: stimulate potent antibody responses
IgG2a response to cytochrome b5 [2]: stimulate IgG2a response
antibody titer compared with no adjuvant [5]: neither 10 μg QS-7 or 0.625 μg QS-21, individually, yields a titer that is higher than no adjuvant
toxicity in mice [6]: least toxic
stimulating a CTL response ([7]; saponin dose 0.625 μg): ineffective
stimulating a CTL response ([7]; saponin dose 1.25 μg): ineffective
stimulating a CTL response ([7]; saponin dose 20 μg): highly effective
